In ChEMBL document CHEMBL1201862, “PubChem BioAssay data set” (2004):
Activity calls are given as the source filed them. No stated cut-off is given here; in the data, actives have a measured IC50 and inactives only a lower limit.

Target: Envelope glycoprotein gp160 (Human immunodeficiency virus 1, UniProt Q6QLK5)
Assay: inhibitors of HIV fusion peptide binding, primary screen, biochemical, uHTS, fluorescence dequenching (AID 1986)

Sequence of Envelope glycoprotein gp160 (Q6QLK5 whole entry, the tested form may be a part): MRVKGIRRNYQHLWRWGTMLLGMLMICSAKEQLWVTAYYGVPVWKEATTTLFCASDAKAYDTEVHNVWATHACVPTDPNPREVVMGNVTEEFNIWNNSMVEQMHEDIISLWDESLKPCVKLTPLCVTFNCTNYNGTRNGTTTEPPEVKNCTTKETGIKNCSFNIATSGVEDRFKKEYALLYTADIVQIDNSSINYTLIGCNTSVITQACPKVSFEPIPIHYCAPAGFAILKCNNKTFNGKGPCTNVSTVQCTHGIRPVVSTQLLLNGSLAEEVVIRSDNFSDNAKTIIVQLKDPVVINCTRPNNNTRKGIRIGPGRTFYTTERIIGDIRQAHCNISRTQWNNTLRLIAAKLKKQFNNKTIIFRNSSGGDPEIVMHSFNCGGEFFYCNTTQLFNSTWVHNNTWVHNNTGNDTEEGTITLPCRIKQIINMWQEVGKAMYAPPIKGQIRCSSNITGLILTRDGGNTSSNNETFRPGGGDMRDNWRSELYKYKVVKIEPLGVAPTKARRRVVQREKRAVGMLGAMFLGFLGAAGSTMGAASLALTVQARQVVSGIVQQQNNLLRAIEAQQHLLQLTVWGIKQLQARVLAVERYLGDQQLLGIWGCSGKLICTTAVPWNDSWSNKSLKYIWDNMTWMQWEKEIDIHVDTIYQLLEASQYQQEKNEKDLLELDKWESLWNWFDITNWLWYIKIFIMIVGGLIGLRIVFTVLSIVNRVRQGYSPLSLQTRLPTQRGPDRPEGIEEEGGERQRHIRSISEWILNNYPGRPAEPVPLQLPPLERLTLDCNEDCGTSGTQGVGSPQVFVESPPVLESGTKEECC

O=C1Nc2ccc(Br)cc2/C1=C1/SC(=S)N(NS(=O)(=O)c2ccccc2)C1=O
IC50: 23.9 µM (active)
